Tested on: healthy females
Test: Phase 1 FIH single ascending dose study: safety and tolerability (AEs)
Type: in vivo, human
Description: The study was a double-blind, randomized, placebo-controlled Phase 1 single ascending dose study in up to 6 cohorts in healthy females. Eligibility was assessed during a screening period of up to 28 days prior to enrollment. For the treatment period, subjects were admitted to the clinical research unit (CRU) one day prior to the dosing (Day −1). On Day 1, all subjects will received the assigned SC dose of RE104 HCl or placebo in a fed state (after domiciling overnight and consuming a planned evening meal on Day −1 and morning meal on Day 1 while at the CRU). Subjects were allowed to select snacks from a planned menu from 4 hours following dosing. Subjects were discharged from the clinic on Day 2 (−24 hours post-dose) after all required study procedures were completed and if deemed medically fit. Subjects returned to the clinic on Day 10 (±2 days) for a follow up visit.
Six (6) cohorts were enrolled in the study. Six (6) single doses were tested in 6 cohorts (Cohort 1 to Cohort 6) of 8 healthy female subjects (6 active and 2 placebo), as indicated in FIG. 1 and Table 3.
The starting dose was 5.5 mg RE104 HCl. Sentinels were used in all cohorts. Within each cohort, 2 subjects were treated first: 1 subject received RE104 HCl and 1 subject received placebo.
The study was monitored by a safety review committee (SRC). […] Safety, tolerability, and available PK data were assessed by the SRC between each cohort before ascending to the next dose level (Table 3). After each cohort dosing was complete, the SRC met to discuss dose escalation. Escalation to the next higher dose level occurred only after evaluation of the safety and tolerability data up to and including at least 24 hours post-dose of all evaluable subjects in the previous dose cohort. Available PK results were requested for determination of dose escalation, as deemed necessary.
Dosing took place at a time point agreed to with the investigational pharmacy and acceptable to the investigator. RE104 HCl or placebo were administered as a SC injection in the upper arm. Subjects received RE104 HCl or placebo in a fed state. The time of administration of RE104 HCl or placebo was be recorded in the eCRF. The regimen used is outlined in Table 3.
Within each cohort, 2 sentinel subjects were treated first: 1 subject received RE104 HCl and 1 subject received placebo. […] All drug administration was be done under direct medical supervision. Study subjects were overseen during the potentially psychoactive study drug period by professionals trained to monitor psychedelic experiences.

For CC(C)N(CCc1c[nH]c2cccc(OC(=O)CCCC(=O)O)c12)C(C)C [RE104], the “AE Abdominal pain” value (RE104 5.5 mg, n = 6) was 0 n (%), the “AE Agitation” value (RE104 5.5 mg, n = 6) was 0 n (%) and the “AE Diarrhea” value (RE104 5.5 mg, n = 6) was 0 n (%). For the same molecule, the “AE Distress” value (RE104 5.5 mg, n = 6) was 0 n (%), the “AE Fatigue” value (RE104 5.5 mg, n = 6) was 0 n (%) and the “AE Feeling hot” value (RE104 5.5 mg, n = 6) was 0 n (%). For the same molecule, the “AE Headache” value (RE104 5.5 mg, n = 6) was 0 n (%), the “AE Heart rate increased” value (RE104 5.5 mg, n = 6) was 0 n (%) and the “AE Hyperhidrosis” value (RE104 5.5 mg, n = 6) was 0 n (%). For the same molecule, the “AE Muscle twitching” value (RE104 5.5 mg, n = 6) was 0 n (%), the “AE Musculoskeletal injury” value (RE104 5.5 mg, n = 6) was 0 n (%) and the “AE Nausea” value (RE104 5.5 mg, n = 6) was 1 (16.7) n (%). The “AE Restlessness” value (RE104 5.5 mg, n = 6) was 0 n (%), the “AE Sinus tachycardia” value (RE104 5.5 mg, n = 6) was 0 n (%) and the “AE Thirst” value (RE104 5.5 mg, n = 6) was 0 n (%). The “AE Tremor” value (RE104 5.5 mg, n = 6) was 0 n (%), the “AE Vomiting” value (RE104 5.5 mg, n = 6) was 1 (16.7) n (%) and the “AEs leading to” value (RE104 5.5 mg, n = 6) was 0 n (%). For the same molecule, the “Any AE” value (RE104 5.5 mg, n = 6) was 2 (33.3) n (%), the “Any SAE” value (RE104 5.5 mg, n = 6) was 0 n (%) and the “Severe AEs” value (RE104 5.5 mg, n = 6) was 0 n (%). For the same molecule, the “AE Abdominal pain” value (RE104 11 mg, n = 6) was 0 n (%), the “AE Agitation” value (RE104 11 mg, n = 6) was 0 n (%) and the “AE Diarrhea” value (RE104 11 mg, n = 6) was 0 n (%). The “AE Distress” value (RE104 11 mg, n = 6) was 0 n (%), the “AE Fatigue” value (RE104 11 mg, n = 6) was 0 n (%) and the “AE Feeling hot” value (RE104 11 mg, n = 6) was 0 n (%). For the same molecule, the “AE Headache” value (RE104 11 mg, n = 6) was 1 (16.7) n (%), the “AE Heart rate increased” value (RE104 11 mg, n = 6) was 0 n (%) and the “AE Hyperhidrosis” value (RE104 11 mg, n = 6) was 0 n (%). For the same molecule, the “AE Muscle twitching” value (RE104 11 mg, n = 6) was 0 n (%), the “AE Musculoskeletal injury” value (RE104 11 mg, n = 6) was 0 n (%) and the “AE Nausea” value (RE104 11 mg, n = 6) was 2 (33.3) n (%). The “AE Restlessness” value (RE104 11 mg, n = 6) was 0 n (%), the “AE Sinus tachycardia” value (RE104 11 mg, n = 6) was 0 n (%) and the “AE Thirst” value (RE104 11 mg, n = 6) was 0 n (%). The “AE Tremor” value (RE104 11 mg, n = 6) was 0 n (%), the “AE Vomiting” value (RE104 11 mg, n = 6) was 0 n (%) and the “AEs leading to” value (RE104 11 mg, n = 6) was 0 n (%). For the same molecule, the “Any AE” value (RE104 11 mg, n = 6) was 2 (33.3) n (%), the “Any SAE” value (RE104 11 mg, n = 6) was 0 n (%) and the “Severe AEs” value (RE104 11 mg, n = 6) was 0 n (%). For the same molecule, the “AE Abdominal pain” value (RE104 22 mg, n = 6) was 0 n (%), the “AE Agitation” value (RE104 22 mg, n = 6) was 0 n (%) and the “AE Diarrhea” value (RE104 22 mg, n = 6) was 1 (16.7) n (%). For the same molecule, the “AE Distress” value (RE104 22 mg, n = 6) was 0 n (%), the “AE Fatigue” value (RE104 22 mg, n = 6) was 0 n (%) and the “AE Feeling hot” value (RE104 22 mg, n = 6) was 1 (16.7) n (%). For the same molecule, the “AE Headache” value (RE104 22 mg, n = 6) was 0 n (%), the “AE Heart rate increased” value (RE104 22 mg, n = 6) was 1 (16.7) n (%) and the “AE Hyperhidrosis” value (RE104 22 mg, n = 6) was 1 (16.7) n (%). For the same molecule, the “AE Muscle twitching” value (RE104 22 mg, n = 6) was 0 n (%), the “AE Musculoskeletal injury” value (RE104 22 mg, n = 6) was 0 n (%) and the “AE Nausea” value (RE104 22 mg, n = 6) was 0 n (%). The “AE Restlessness” value (RE104 22 mg, n = 6) was 0 n (%), the “AE Sinus tachycardia” value (RE104 22 mg, n = 6) was 0 n (%) and the “AE Thirst” value (RE104 22 mg, n = 6) was 0 n (%). The “AE Tremor” value (RE104 22 mg, n = 6) was 0 n (%), the “AE Vomiting” value (RE104 22 mg, n = 6) was 0 n (%) and the “AEs leading to” value (RE104 22 mg, n = 6) was 0 n (%). The “Any AE” value (RE104 22 mg, n = 6) was 2 (33.3) n (%), the “Any SAE” value (RE104 22 mg, n = 6) was 0 n (%) and the “Severe AEs” value (RE104 22 mg, n = 6) was 0 n (%). For the same molecule, the “AE Abdominal pain” value (RE104 33 mg, n = 9) was 2 (22.2) n (%), the “AE Agitation” value (RE104 33 mg, n = 9) was 0 n (%) and the “AE Diarrhea” value (RE104 33 mg, n = 9) was 0 n (%). For the same molecule, the “AE Distress” value (RE104 33 mg, n = 9) was 0 n (%), the “AE Fatigue” value (RE104 33 mg, n = 9) was 2 (22.2) n (%) and the “AE Feeling hot” value (RE104 33 mg, n = 9) was 0 n (%). The “AE Headache” value (RE104 33 mg, n = 9) was 1 (11.1) n (%), the “AE Heart rate increased” value (RE104 33 mg, n = 9) was 0 n (%) and the “AE Hyperhidrosis” value (RE104 33 mg, n = 9) was 0 n (%). For the same molecule, the “AE Muscle twitching” value (RE104 33 mg, n = 9) was 3 (33.3) n (%), the “AE Musculoskeletal injury” value (RE104 33 mg, n = 9) was 1 (11.1) n (%) and the “AE Nausea” value (RE104 33 mg, n = 9) was 3 (33.3) n (%). The “AE Restlessness” value (RE104 33 mg, n = 9) was 3 (33.3) n (%), the “AE Sinus tachycardia” value (RE104 33 mg, n = 9) was 4 (44.4) n (%) and the “AE Thirst” value (RE104 33 mg, n = 9) was 0 n (%). The “AE Tremor” value (RE104 33 mg, n = 9) was 1 (11.1) n (%), the “AE Vomiting” value (RE104 33 mg, n = 9) was 0 n (%) and the “AEs leading to” value (RE104 33 mg, n = 9) was 0 n (%). The “Any AE” value (RE104 33 mg, n = 9) was 8 (88.9) n (%), the “Any SAE” value (RE104 33 mg, n = 9) was 0 n (%) and the “Severe AEs” value (RE104 33 mg, n = 9) was 0 n (%). The “AE Abdominal pain” value (RE104 38 mg, n = 6) was 0 n (%), the “AE Agitation” value (RE104 38 mg, n = 6) was 2 (33.3) n (%) and the “AE Diarrhea” value (RE104 38 mg, n = 6) was 2 (33.3) n (%). The “AE Distress” value (RE104 38 mg, n = 6) was 1 (16.7) n (%), the “AE Fatigue” value (RE104 38 mg, n = 6) was 0 n (%) and the “AE Feeling hot” value (RE104 38 mg, n = 6) was 0 n (%). For the same molecule, the “AE Headache” value (RE104 38 mg, n = 6) was 4 (66.7) n (%), the “AE Heart rate increased” value (RE104 38 mg, n = 6) was 0 n (%) and the “AE Hyperhidrosis” value (RE104 38 mg, n = 6) was 1 (16.7) n (%). For the same molecule, the “AE Muscle twitching” value (RE104 38 mg, n = 6) was 0 n (%), the “AE Musculoskeletal injury” value (RE104 38 mg, n = 6) was 0 n (%) and the “AE Nausea” value (RE104 38 mg, n = 6) was 2 (33.3) n (%). For the same molecule, the “AE Restlessness” value (RE104 38 mg, n = 6) was 3 (50.0) n (%), the “AE Sinus tachycardia” value (RE104 38 mg, n = 6) was 3 (50.0) n (%) and the “AE Thirst” value (RE104 38 mg, n = 6) was 2 (33.3) n (%). For the same molecule, the “AE Tremor” value (RE104 38 mg, n = 6) was 0 n (%), the “AE Vomiting” value (RE104 38 mg, n = 6) was 0 n (%) and the “AEs leading to” value (RE104 38 mg, n = 6) was 0 n (%). For the same molecule, the “Any AE” value (RE104 38 mg, n = 6) was 5 (83.3) n (%), the “Any SAE” value (RE104 38 mg, n = 6) was 0 n (%) and the “Severe AEs” value (RE104 38 mg, n = 6) was 1 (16.7) n (%). For the same molecule, the “AE Abdominal pain” value (RE104 44 mg, n = 3) was 0 n (%), the “AE Agitation” value (RE104 44 mg, n = 3) was 2 n (%) and the “AE Diarrhea” value (RE104 44 mg, n = 3) was 0 n (%). For the same molecule, the “AE Distress” value (RE104 44 mg, n = 3) was 1 n (%), the “AE Fatigue” value (RE104 44 mg, n = 3) was 0 n (%) and the “AE Feeling hot” value (RE104 44 mg, n = 3) was 0 n (%). For the same molecule, the “AE Headache” value (RE104 44 mg, n = 3) was 0 n (%), the “AE Heart rate increased” value (RE104 44 mg, n = 3) was 0 n (%) and the “AE Hyperhidrosis” value (RE104 44 mg, n = 3) was 1 n (%). The “AE Muscle twitching” value (RE104 44 mg, n = 3) was 0 n (%), the “AE Musculoskeletal injury” value (RE104 44 mg, n = 3) was 0 n (%) and the “AE Nausea” value (RE104 44 mg, n = 3) was 2 n (%). The “AE Restlessness” value (RE104 44 mg, n = 3) was 1 n (%), the “AE Sinus tachycardia” value (RE104 44 mg, n = 3) was 2 n (%) and the “AE Thirst” value (RE104 44 mg, n = 3) was 0 n (%). The “AE Tremor” value (RE104 44 mg, n = 3) was 1 n (%), the “AE Vomiting” value (RE104 44 mg, n = 3) was 1 n (%) and the “AEs leading to” value (RE104 44 mg, n = 3) was 0 n (%). The “Any AE” value (RE104 44 mg, n = 3) was 3 n (%), the “Any SAE” value (RE104 44 mg, n = 3) was 0 n (%) and the “Severe AEs” value (RE104 44 mg, n = 3) was 1 n (%). For the same molecule, the “sinus tachycardia, maximum recorded value” (asymptomatic) was 115 beats per minute.

From patent US20250319067A1, “Improved Pharmacokinetics of Tryptamine Prodrugs” (Reunion Neuroscience, Inc., priority 2023, published 2025)
